Measured values published in ChEMBL document CHEMBL1132090, “Synthesis of a phostone glycomimetic of the endothelin converting enzyme inhibitor phosphoramidon” (Bioorg Med Chem Lett, 1999).
Calls of active or inactive are those of the source. The rule behind the calls is not given here.

Key:
[1] = Inhibitory activity against thermolysin induced by big ET-1 which inhibited hypertensive effect; active; type: functional
[2] = target: T1, Endothelin-converting enzyme 1 (Homo sapiens, UniProt P42892); assay: Concentration required to inhibit conversion of […] after deprotection and purification by reverse-phase HPLC; type: functional
T1 sequence (P42892 whole entry): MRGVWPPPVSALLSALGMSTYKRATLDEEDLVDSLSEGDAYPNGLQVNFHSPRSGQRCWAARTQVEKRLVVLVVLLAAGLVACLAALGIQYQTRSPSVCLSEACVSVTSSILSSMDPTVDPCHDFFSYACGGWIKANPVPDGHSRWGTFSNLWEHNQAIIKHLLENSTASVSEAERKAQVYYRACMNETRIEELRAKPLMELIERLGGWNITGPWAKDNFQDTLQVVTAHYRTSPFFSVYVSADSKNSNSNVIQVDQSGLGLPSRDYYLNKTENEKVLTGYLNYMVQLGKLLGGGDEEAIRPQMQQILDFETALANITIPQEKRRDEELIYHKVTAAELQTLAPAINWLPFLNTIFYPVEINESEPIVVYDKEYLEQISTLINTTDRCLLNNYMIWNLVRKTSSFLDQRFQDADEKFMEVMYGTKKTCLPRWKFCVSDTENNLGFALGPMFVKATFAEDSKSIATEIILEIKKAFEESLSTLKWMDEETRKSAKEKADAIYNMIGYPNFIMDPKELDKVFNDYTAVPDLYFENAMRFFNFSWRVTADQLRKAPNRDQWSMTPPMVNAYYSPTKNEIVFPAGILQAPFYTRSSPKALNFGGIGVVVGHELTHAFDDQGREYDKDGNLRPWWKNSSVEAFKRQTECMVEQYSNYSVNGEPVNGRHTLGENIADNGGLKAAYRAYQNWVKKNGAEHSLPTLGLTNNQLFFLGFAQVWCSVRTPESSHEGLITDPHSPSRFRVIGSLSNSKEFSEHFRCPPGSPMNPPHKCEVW

In the case of `CC(C)C[C@H](NP(=O)(O)OC1OC(C)C(O)C(O)C1O)C(=O)N[C@@H](Cc1c[nH]c2ccccc12)C(=O)O` (some centres not stated), the Inhibitory activity [1] is reported as “Active”.
`CC(C)C[C@H](NP1(=O)OC(C)C(O)C(O)C1O)C(=O)N[C@@H](Cc1c[nH]c2ccccc12)C(=O)O` (some centres not stated) showed an IC50 [2] of 5.05 µM.
